Test results: patent publication US8518956B2, “1-(1-(2-ethoxyethyl)-3-ethyl-7-(4-methylpyridin-2-ylamino)-1H-pyrazolo[4,3-d]pyrimidin-5-yl) piperidine-4-carboxylic acid and salts thereof” (priority 2005, dated 2013)

Experiments:
[1] = test system: Chinese hamster ovary (CHO) cells; assay: Method 7: Micronucleus Assay; type: cell-based; details: in vitro, with and without S9
Experimental: Method 7: Micronucleus Assay
An in vitro micronucleus assay can be used to determine the mutagenic potential of a test compound. This assay detects chromosome abnormalities resulting from exposure to a test compound by measuring the formation of small membrane-bound DNA fragments such as micronuclei in the cytoplasm of interphase cells.
The assay is conducted using Chinese hamster ovary (CHO) cells under different test conditions in the absence and presence of metabolic activation. Concordance in outcomes between this screening assay and in vitro cytogenetics is around 85%. Direct (−S9) testing is conducted using 24 hour or 3 hour continuous treatments, whereas testing with metabolic activation (+S9) involves a 3 hour treatment. Clastogenicity is indicated by an increase in numbers of micronucleated cells in the first interphase after exposure (in cytokinesis-blocked binucleated cells). The results are compared to the level of cytotoxicity (measured by the proportion of binucleated cells) a test compound produces. […] A test compound displaying a negative response has not fulfilled specific evaluation criteria for the assay which may include one or both of the following: 1) a reproducible concentration dependent increase in the specific assay endpoint when compared to a negative (vehicle) control and/or 2) one or more test concentrations achieving a minimum fold increase in the specific endpoint over controls. • Positive—A positive result identifies a genotoxic hazard defined by the assays specific endpoint (ex. positive in vitro micronucleus). A test compound displaying a positive response has fulfilled specific evaluation criteria for the assay which may include one or both of the following: 1) a reproducible concentration dependent increase in the specific assay endpoint when compared to a negative (vehicle) control and/or 2) one or more test concentrations achieving a minimum fold increase in the specific endpoint over controls. • Equivocal—An equivocal result is reserved for situations where the test compound has been evaluated in a valid assay test or tests (i.e. assay acceptability criteria satisfactory), but fails to display a negative or positive result as defined by established evaluation criteria. This may convey the presence of a weak positive response that requires additional repeat testing or eventual confirmatory testing case-by-case. • Inconclusive—An inconclusive result is reserved for situations where the test compound has been evaluated in an invalid assay test (i.e. assay acceptability criteria unsatisfactory for technical reasons, ex. negative or positive controls fail to respond appropriately). Repeat testing is recommended in order to establish a valid assay test result.

[2] = Method 11: Single Dose Pharmacokinetics and Oral Bioavailability in Male Sprague-Dawley Rat; type: in vivo; details: mean
Experimental: Repeat testing is recommended in order to establish a valid assay test result. P. Pharmacokinetic/Pharmacodynamic Study Method 11: Single Dose Pharmacokinetics and Oral Bioavailability in Male Sprague-Dawley Rat Following Intravenous and Oral Administration
An in vivo model can be used to evaluate the single dose pharmacokinetic properties and absolute oral bioavailability of a test compound. As described more specifically below, a test compound is administered to Sprague-Dawley (SD) rats either intravenously or orally in a crossover study design and the resulting pharmacokinetic properties and oral bioavailability are measured.
Male rats are administered a 2.0 mg/kg dose orally (n=2) by gavage as a suspension (0.5% methylcellulose/0.1% Tween 80 in distilled water). After a 72 hour wash-out periond, the same rats were administered 2.0 mg/kg dose bolus intravenously (n=2) as a solution (70% PEG 400/20% 0.05 M Citrate Buffer pH 3/10% Ethanol). Serial blood samples (for plasma) are collected from each rat over a 24 hour post dose for each route. […] Pharmacokinetic parameters of a test compound are determined from the plasma concentration-time data using non-compartmental methods. • LC/MS/MS: 1) Column: Hyperso; AQUASIL C-18 2.1×20 mm, 3.0 μm; 2) Mobile phase: Aqueous Water with 0.1% Formic Acid, Orgainic: Acetonitrile; Ionization: +ESI (API 4000). MRM: m/z 494.4→m/z 394.0 (Example 261 in WO2004096810), m/z 509.44→m/z 409.80 (Example 263 in WO2004096810), m/z 495.33→m/z 395.20 (Example 262 in WO2004096810). The detection limits are 0.12 ng/mL (Example 261 in WO2004096810), 1.3 ng/mL (Example 263 in WO2004096810) and 0.11 ng/mL (Example 262 in WO2004096810).
Watson (Version 6.4.0.04) is used to calculate mean test compound concentrations, corresponding standard deviations (SD), and percent coefficient of variation (% CV), and to estimate pharmacokinetic parameters (derived by noncompartmental methods) and associated statistics (mean, SD & CV %) if applicable. (Since n=2, no SD or CV calculated ?). Concentrations below the limit of quantitation (BLQ) are reported as zero (0) and are used in the evaluation of mean concentrations and the estimation of AUC. The peak plasma concentration (Cmax) and the time to reach peak concentration (tmax) are recorded directly from individual plasma concentration-time profiles. The terminal log-linear phase of the plasma concentration-time curve is identified by linear regression of data points. The terminal half-life (t1/2) is calculated as ln(2) divided by absolute value of the slope of the terminal log-linear phase. The area under the plasma concentration-time curve from time zero to time of the last quantifiable concentration (t) [AUC(0-t)] is determined using the linear trapezoidal method. The area under the plasma concentration-time curve from time zero to infinity [AUC(0-∞)] is determined as AUC(0-t) plus the extrapolated area. The extrapolated area is determined by dividing the last observed plasma concentration by the slope of the terminal log-linear phase. Systemic plasma clearance (CL) is calculated as dose/AUC(0-∞) while the volume of distribution at steady state (Vdss) is calculated as CL×MRT, where MRT (mean residence time) is defined as AUMC(0-∞)/AUC(0-∞). The absolute PO bioavailability (F) is calculated as a ratio of the dose-normalized AUC(0-∞) of individual animal after PO administration to the dose-normalized AUC(0-∞) of individual animal after IV administration given the crossover study design.

[3] = test system: spontaneously hypertensive rats (SHR); assay: Method 12: SHR Rat Combination Therapy, blood pressure by telemetry; type: in vivo; details: 1 mg/kg once daily oral
[4] = test system: urinary cGMP; assay: Method 12: SHR Rat Combination Therapy, urinary cGMP mechanistic biomarker; type: in vivo; details: 0-24 hour urine collection on day 9

For `CCOCCn1nc(CC)c2nc(N3CCC(C(=O)O)CC3)nc(Nc3cc(C)ccn3)c21` [Carboxypiperidine Compound, 1-(1-(2-ethoxyethyl)-3-ethyl-7-(4-methylpyridin-2-ylamino)-1H-pyrazolo[4,3-d]pyrimidin-5-yl)piperidine-4-carboxylic acid], the “METHOD 7: MI[…]” value [1] was “equivocal”, the AUC(0-inf) ([2]; plasma, iv, 2 mg/kg) was 17500 ng·h/mL and the Vd ([2]; plasma, iv, 2 mg/kg, read-out: Vdss) was 0.715 L/kg. For the same compound, the AUC(0-inf) ([2]; plasma, po, 2 mg/kg) was 9070 ± 2300 ng·h/mL, the Cmax ([2]; plasma, po, 2 mg/kg) was 1360 ± 216 ng/mL and the Tmax ([2]; plasma, po, 2 mg/kg) was 30 ± 12 min. The F ([2]; po 2 mg/kg vs iv 2 mg/kg) was 51.8 ± 13.1%, the “reduction of blood pressure from pre-dose baseline in comparison to vehicle treated group” value ([3]; day 1) was 11±1 mmHg and the “reduction of blood pressure below pre-dose baseline” value ([3]; day 7) was 9±1 mmHg. The “urinary cGMP in comparison to vehicle treated group” value [4] was “elevated”.
